The results in this text go back to patent US20140343118A1, “METHODS OF TREATMENT USING ARYLCYCLOPROPYLAMINE COMPOUNDS” (Duke University, priority 2013, published 2014).

In experiment [1] the test system is MCF7 cells. Description: Cell proliferation assay (total DNA content). It is filed as cell-based. The settings on record: MCF7, 250 μM every other day for 10 days. The method, then: (§1) After 2 d, the cells were treated with fresh media containing the inhibitors at the concentrations indicated. Every 2 d, for a total of 6 or 10 d, respectively, the cells were treated similarly. […] Data are presented as the mean±SEM for triplicate wells in one representative experiment.

Experiment [2] deals with MDA-MB-231 cells. Nature of the experiment: Cell proliferation assay (total DNA content). It is filed as cell-based. Particulars: MDA-MB-231, 250 μM every other day for 10 days. Here is the method: as §1
The next experiment deals with HCC1143 cells. The settings on record: HCC1143, 250 μM every other day for 10 days. The method, then: as §1
A further experiment relates to HCC1937 cells. Particulars: HCC1937, 250 μM every other day for 10 days. The method, then: as §1
Experiment [3] deals with MCF7 cells. Description: Cell cycle analysis (BrdU/PI flow cytometry). It counts as cell-based. Particulars: MCF7, 250 μM, 24 hours. Here is the method:
MCF7 cells were seeded at 400,000 cells per well in 6 well plates in DMEM/F12 (Invitrogen) containing 8% FBS, 1 mM sodium pyruvate and 0.1 mM non-essential amino acids. After 24 h, the cells were treated with fresh media containing the 250 μM inhibitor. After 48 h of treatment, the cells were pulsed for 2 h with BrdU (10 μg mL^−1). The cells were trypsinized and collected using cold IFA buffer (3 mL) (4% charcoal stripped FBS, 150 mM sodium chloride, 10 mM HEPES, pH 7.5). They were washed with PBS, resuspended in 1 mL of PBS and fixed with 70% ethanol. The cells were incubated for 30 min on ice and then stored at −20° C. The cells were washed with PBS containing 0.5% BSA. The pellet was denatured with 2 M hydrochloric acid containing 0.5% BSA. The residual acid was neutralized using 0.1M sodium borate, pH 8.5. The cell pellet was resuspended in dilute anti-BrdU-alexa fluor-488 antibody (Molecular Probes) (PBS+0.5% Tween 20+0.5% BSA+5% antibody). After washing excess away, the cell pellets were resuspended in PI+RNase A (10 μg mL^−1 propidium iodide and 10 μg mL^−1 RNase A in PBS). The cells were vortexed and analyzed using flow cytometry (Accuri C6).
On the technique in general: In flow cytometry, cells or beads pass a laser one at a time.

For experiment [4], the system named is histone H3K4-Me2 and H3K9-Me2 in MCF7 cells. Description: Western blot of global histone dimethylation. It counts as cell-based. The settings on record: inhibitors 250 μM for 24 h. Here is the method: (§2) MCF7 cells or MDA-MB 231 cells were seeded in six-well plates. Cells were treated after 48 h with inhibitor for 24 h. Whole-cell extracts were isolated using RIPA buffer [50 mM Tris (pH 8.0), 200 mM NaCl, 1.5 mM MgCl2, 1% Nonidet P-40 (NP40), 1 mM EGTA, 10% glycerol, 50 mM NaF, 2 mM Na3VO4 and 1× protease inhibitor mixture]. Crude histones were extracted from the lysate pellet by resuspending in water and precipitating with 25% TCA. The pellets were washed with acetone and then resuspended. Concentration of whole-cell lysate or resuspended histones was determined using Bio-Rad Bradford reagent using BSA for standard curve. For each sample, proteins were resolved by SDS-PAGE and transferred to a PVDF membrane (Biorad).
(§3) H3K4-Me2 was detected using polyclonal rabbit antibody (Millipore 07-030). H3K9-Me2 was detected using a monoclonal mouse antibody (Abcam ab1220). Total H3 was detected using a polyclonal rabbit antibody (Abcam ab1791). LSD1 was detected using a monoclonal rabbit antibody (Millipore 05-939) or polyclonal rabbit antibody (Abcam ab17721). ERα (D12) was detected using monoclonal mouse antibody (Santa Cruz sc-8005). GAPDH was detected using polyclonal goat antibody (Santa Cruz sc-20357). Secondary antibodies were purchased from Bio-Rad.

The subject of experiment [5] is histone H3K4-Me2 and H3K9-Me2 in MDA-MB-231 cells. Description: Western blot of global histone dimethylation. The settings on record: inhibitors 250 μM for 24 h. It counts as cell-based. Here is the method:
as §2, §3

Experiment [6] deals with MCF7 cells. Particulars: MCF7, 24 h, up to 500 μM.
Experiment [7] relates to MDA-MB-231 cells. The settings on record: MDA-MB-231, 24 h, up to 500 μM.
The next experiment has as its target T1, recombinant LSD1 (Homo sapiens, UniProt O60341).
T1 construct: made in house
Nature of the experiment: LSD1 horseradish peroxidase coupled enzyme assay, time-dependent inactivation kinetics. It is filed as biochemical. The method, then: For example, compounds may be assayed for their ability to inhibit the enzymatic activity of recombinant LSD1 utilizing a horseradish peroxidase coupled assay for the detection of hydrogen peroxide formed in the demethylase catalytic cycle.
LSD1 overexpression, purification and horseradish peroxidase coupled enzyme assay were performed as previously described.
Inhibitors were prepared as 100 mM stocks in dimethylsulfoxide (DMSO) before dilution into assay reagents at appropriate concentrations. Progress curves for time-dependent enzyme inactivation were fit to Equation 1
Product=(vi/kobs)*(1−exp^−kobs*t) (1)
to obtain values of kobs as a function of inhibitor concentration, which were then fit to Equation 2 to obtain values of kinact and K1.

The target in the next experiment is T2, MAO B (Homo sapiens, UniProt P27338).
T2 sequence (P27338 1-520): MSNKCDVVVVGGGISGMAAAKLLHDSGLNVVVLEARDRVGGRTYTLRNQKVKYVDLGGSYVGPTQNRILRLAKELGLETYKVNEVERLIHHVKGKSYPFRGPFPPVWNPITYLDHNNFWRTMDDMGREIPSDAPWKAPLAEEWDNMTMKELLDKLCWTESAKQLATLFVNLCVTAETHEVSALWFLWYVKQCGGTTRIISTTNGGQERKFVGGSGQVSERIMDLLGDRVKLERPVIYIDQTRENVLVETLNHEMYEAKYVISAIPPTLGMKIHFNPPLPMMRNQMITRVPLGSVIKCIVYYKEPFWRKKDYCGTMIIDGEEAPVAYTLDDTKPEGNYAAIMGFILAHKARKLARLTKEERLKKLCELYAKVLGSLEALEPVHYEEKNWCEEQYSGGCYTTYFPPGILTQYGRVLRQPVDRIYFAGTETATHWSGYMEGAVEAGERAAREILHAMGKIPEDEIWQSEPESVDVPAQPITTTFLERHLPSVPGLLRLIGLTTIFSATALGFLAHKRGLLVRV
Description: Inhibition kinetics of MAO B.

Take `N[C@@H]1C[C@H]1c1ccccc1` (relative stereo) [Compound 2-PCPA, trans-2-Phenylcyclopropylamine]: the cell proliferation entry in the experiment on MCF7 cells [1], with MDA-MB-231 cells [2], with HCC1143 cells and in the experiment on HCC1937 cells was “significantly decreased cell proliferation” throughout. In addition, the “cell cycle arrest (accumulation in G1 and G2/M, decrease in S phase)” value in the experiment with MCF7 cells [3] was “growth arrested”. In addition, the “level of global histone H3K4-Me2” value in [4] was “increased”; in experiment [5], “robust increases”. Moreover, the results for the “level of global histone H3K9-Me2” value in experiment [4] and in experiment [5] were “significant changes were not observed” and “robust increases”, respectively. Further, the induction of apoptosis result in the experiment with MCF7 cells [6] and in the experiment with MDA-MB-231 cells [7] was “did not induce apoptosis” throughout.
One may read the kinact as the rate constant of inactivation at saturating inhibitor. For `CCOc1ccc(C2CC2N)cc1` (stereo not shown) [Compound 1b], the kinact at recombinant LSD1 (LSD1 inactivation) came out at 0.02 ± 0.002 s⁻¹.
As for `NC1CC1c1ccc(Oc2ccccc2)cc1` (stereo not shown) [Compound 1d], at MAO B, the kinact worked out at 0.032 ± 0.002 s⁻¹.
As for `NC1CC1c1cccc(OCc2ccccc2)c1` (stereo not shown) [Compound 1e], the kinact on recombinant LSD1 (LSD1 inactivation) came to 0.025 ± 0.005 s⁻¹.
`CC(C)(C)c1ccc(Sc2ccc(C3CC3N)cc2)cc1` (stereo not shown) [Compound 1f]: on recombinant LSD1 (LSD1 inactivation), the Ki worked out at 540 ± 160 µM and the kinact was determined as 0.022 ± 0.003 s⁻¹.
In general, kinact/KI refers to the maximal inactivation rate divided by the concentration that gives half of it. `C#CCNCc1ccccc1` [Compound 2a]: the kinact/KI at recombinant LSD1 (LSD1 inactivation) is < 0.6 M⁻¹ s⁻¹.
In the case of `C#CCNCc1ccc(OC(C)C)cc1` [Compound 2b], the second-order inactivation constant (kinact/KI) at recombinant LSD1 (LSD1 inactivation) was < 0.8 M⁻¹ s⁻¹.
The same measure, in the same setting: the value for `C#CCNCc1ccc(Oc2ccccc2)cc1` [Compound 2c] was < 0.3 M⁻¹ s⁻¹.
On to `C#CCN(C)Cc1ccccc1` [pargyline], for which the “concentration needed to inhibit LSD1 in vitro” value at recombinant LSD1 was “greater than 5 mM”. Further, on recombinant LSD1 (LSD1 inactivation), the kinact/KI was < 0.2 M⁻¹ s⁻¹. The enzymatic activity remaining entry on recombinant LSD1 (concentrations as high as 10 mM, prolonged exposure) is recorded as “greater than 70%”.
